Source: article PMC3632207 (Journal of medicinal chemistry, 2013)

Target: rat nNOS (Rattus norvegicus, UniProt P29476)
Assay: NOS inhibition, hemoglobin capture assay
Format: biochemical
Conditions: data not shown

Competition with H4B: not to be competitive with H4B
Compound: Cc1cc(N)nc(CCc2cc(CCCN)cc(CCc3cc(C)cc(N)n3)c2)c1 [Compound 4, 6,6'-((5-(3-Aminopropyl)-1,3-phenylene)bis(ethane-2,1-diyl))bis(4-methylpyridin-2-amine)]
